Reference: PubChem BioAssay AID256 (DTP/NCI, 2004)
Inconclusive results and toxic doses are left out. Rule for the calls: active = survival T/C of 150% or more; inactive = T/C below 125% in these data.

System: CD2F1 mice, L1210 leukemia ip, survival T/C
Experiment: NCI In Vivo Anticancer Drug Screen. Data for tumor model L1210 Leukemia (intraperitoneal) in CD2F1 (CDF1) mice
Settings: higher = longer survival
Outline: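 Mice carrying a transplanted tumor received test compound or vehicle alone. The value is the measurement in the treated group divided by that in the vehicle-treated control group.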

[1] = endpoint: mean survival time, dose: 100.0 mg/kg/injection, schedule: Q04DX002 (ip), vehicle: saline with Tween-80
[2] = endpoint: mean survival time, dose: 200.0 mg/kg/injection, schedule: Q04DX002 (ip), vehicle: saline with Tween-80
[3] = endpoint: mean survival time, dose: 400.0 mg/kg/injection, schedule: Q04DX002 (ip), vehicle: saline with Tween-80
[4] = endpoint: mean survival time, dose: 25.0 mg/kg/injection, schedule: Q01DX009 (ip), vehicle: saline
[5] = endpoint: mean survival time, dose: 50.0 mg/kg/injection, schedule: Q01DX009 (ip), vehicle: saline
[6] = endpoint: mean survival time, dose: 200.0 mg/kg/injection, schedule: Q01DX009 (ip), vehicle: saline with Tween-80
[7] = endpoint: mean survival time, dose: 400.0 mg/kg/injection, schedule: Q01DX009 (ip), vehicle: saline with Tween-80
[8] = endpoint: mean survival time, dose: 100.0 mg/kg/injection, schedule: Q01DX009 (ip), vehicle: saline with Tween-80
[9] = endpoint: mean survival time, dose: 100.0 mg/kg/injection, schedule: Q01DX001 (ip), vehicle: saline
[10] = endpoint: mean survival time, dose: 200.0 mg/kg/injection, schedule: Q01DX001 (ip), vehicle: saline
[11] = endpoint: mean survival time, dose: 50.0 mg/kg/injection, schedule: Q04DX003 (ip), vehicle: saline
[12] = endpoint: mean survival time, dose: 100.0 mg/kg/injection, schedule: Q04DX003 (ip), vehicle: saline

Measured: T/C

c1ccc(N/N=C2/CSCc3ccccc32)cc1
inactive: endpoint: mean survival time, dose: 100.0 mg/kg/injection, schedule: Q01DX009 (ip), vehicle: Klucel (hydroxypropylcellulose) (HPC) 98 % of control | endpoint: mean survival time, dose: 200.0 mg/kg/injection, schedule: Q01DX009 (ip), vehicle: Klucel (hydroxypropylcellulose) (HPC) 93 % of control | endpoint: mean survival time, dose: 400.0 mg/kg/injection, schedule: Q01DX009 (ip), vehicle: Klucel (hydroxypropylcellulose) (HPC) 93 % of control

COc1ccc(NC(=O)Oc2cccc(C)c2)cc1
inactive: [1] 90 % of control | [2] 97 % of control | [3] 93 % of control

CN(C)C1CC2C=CC1C1C=CC21 (configuration not stated)
inactive: endpoint: mean survival time, dose: 6.25 mg/kg/injection, schedule: Q01DX009 (ip), vehicle: water 100 % of control | endpoint: mean survival time, dose: 12.5 mg/kg/injection, schedule: Q01DX009 (ip), vehicle: water 97 % of control | endpoint: mean survival time, dose: 25.0 mg/kg/injection, schedule: Q01DX009 (ip), vehicle: water 101 % of control | endpoint: mean survival time, dose: 50.0 mg/kg/injection, schedule: Q01DX009 (ip), vehicle: water 103 % of control

CCOC1(C)CCC/C(=N/Nc2ccc([N+](=O)[O-])cc2[N+](=O)[O-])C1 (configuration not stated)
inactive: endpoint: mean survival time, dose: 100.0 mg/kg/injection, schedule: Q04DX003 (ip), vehicle: Klucel (hydroxypropylcellulose) (HPC) 97 % of control | endpoint: mean survival time, dose: 200.0 mg/kg/injection, schedule: Q04DX003 (ip), vehicle: Klucel (hydroxypropylcellulose) (HPC) 100 % of control | endpoint: mean survival time, dose: 400.0 mg/kg/injection, schedule: Q04DX003 (ip), vehicle: Klucel (hydroxypropylcellulose) (HPC) 100 % of control

C#CC(C)O (configuration not stated)
inactive: [4] 96 % of control | [5] 89 % of control

N#CCc1ccccc1
inactive: endpoint: mean survival time, dose: 10.0 mg/kg/injection, schedule: Q01DX001 (ip), vehicle: saline 105 % of control | endpoint: mean survival time, dose: 20.0 mg/kg/injection, schedule: Q01DX001 (ip), vehicle: saline 105 % of control

Cc1ccc(N=C(C(=Nc2ccc(C)cc2)c2ccccc2)c2ccccc2)cc1
inactive: [6] 101 % of control | [7] 92 % of control

N#C/C(=C\c1c(Cl)cccc1Cl)c1ccc([N+](=O)[O-])cc1
inactive: [8] 97 % of control | [6] 88 % of control | [7] 91 % of control

CN(C)c1ccc(-c2cc(C(=O)O)c3cc(I)ccc3n2)c(Cl)c1
inactive: endpoint: mean survival time, dose: 75.0 mg/kg/injection, schedule: Q01DX009 (ip), vehicle: saline 100 % of control | endpoint: mean survival time, dose: 75.0 mg/kg/injection, schedule: Q04DX003 (ip), vehicle: saline 92 % of control | endpoint: mean survival time, dose: 150.0 mg/kg/injection, schedule: Q01DX009 (ip), vehicle: saline 94 % of control | endpoint: mean survival time, dose: 150.0 mg/kg/injection, schedule: Q04DX003 (ip), vehicle: saline 93 % of control | endpoint: mean survival time, dose: 300.0 mg/kg/injection, schedule: Q01DX009 (ip), vehicle: saline 98 % of control | endpoint: mean survival time, dose: 300.0 mg/kg/injection, schedule: Q04DX003 (ip), vehicle: saline 110 % of control

CN(C)/N=C(\CBr)c1ccc(Br)cc1
inactive: [9] 103 % of control | [10] 100 % of control

Cc1ccc(S(=O)(=O)N(C)c2ccc(I)cc2F)cc1
inactive: [8] 104 % of control | [6] 95 % of control | [7] 101 % of control

CCCCCCCCCCCCCCCC(=O)N(C(C)CCCN(CC)CC)C(C)CCCN(CC)CC (configuration not stated)
inactive: endpoint: mean survival time, dose: 6.25 mg/kg/injection, schedule: Q01DX009 (ip), vehicle: Klucel (hydroxypropylcellulose) (HPC) 101 % of control | endpoint: mean survival time, dose: 12.5 mg/kg/injection, schedule: Q01DX009 (ip), vehicle: Klucel (hydroxypropylcellulose) (HPC) 100 % of control | endpoint: mean survival time, dose: 25.0 mg/kg/injection, schedule: Q01DX009 (ip), vehicle: Klucel (hydroxypropylcellulose) (HPC) 91 % of control

Cc1cnc(N)nc1-c1ccccc1
inactive: endpoint: mean survival time, dose: 100.0 mg/kg/injection, schedule: Q01DX001 (ip), vehicle: saline with Tween-80 102 % of control | endpoint: mean survival time, dose: 200.0 mg/kg/injection, schedule: Q01DX001 (ip), vehicle: saline with Tween-80 94 % of control | endpoint: mean survival time, dose: 400.0 mg/kg/injection, schedule: Q01DX001 (ip), vehicle: saline with Tween-80 94 % of control

[Cl][Pt+2][Cl].[N-]=C(N)/N=C(\[NH-])N
inactive: endpoint: median survival time, dose: 12.5 mg/kg/injection, schedule: Q04DX003 (ip), vehicle: distilled water + Tween-80 104 % of control | endpoint: median survival time, dose: 25.0 mg/kg/injection, schedule: Q04DX003 (ip), vehicle: distilled water + Tween-80 101 % of control | endpoint: median survival time, dose: 50.0 mg/kg/injection, schedule: Q04DX003 (ip), vehicle: distilled water + Tween-80 101 % of control | endpoint: median survival time, dose: 100.0 mg/kg/injection, schedule: Q04DX003 (ip), vehicle: distilled water + Tween-80 108 % of control | endpoint: median survival time, dose: 200.0 mg/kg/injection, schedule: Q04DX003 (ip), vehicle: distilled water + Tween-80 108 % of control

CCCC1(CC(C)CC)C(=O)NC(=O)NC1=O (configuration not stated) (tested in a mixture with another compound)
inactive: endpoint: mean survival time, dose: 75.0 mg/kg/injection, schedule: Q01DX001 (ip), vehicle: saline 93 % of control | endpoint: mean survival time, dose: 150.0 mg/kg/injection, schedule: Q01DX001 (ip), vehicle: saline 100 % of control | endpoint: mean survival time, dose: 300.0 mg/kg/injection, schedule: Q01DX001 (ip), vehicle: saline 104 % of control

CN1NC=Nc2c1[nH]cnc2=S
inactive: endpoint: mean survival time, dose: 75.0 mg/kg/injection, schedule: Q01DX001 (ip), vehicle: other 89 % of control | endpoint: mean survival time, dose: 150.0 mg/kg/injection, schedule: Q01DX001 (ip), vehicle: other 96 % of control

O=C(O)C(O)C(=O)O.[NH2-].[NH2-].[Pt+2]
inactive: endpoint: mean survival time, dose: 25.0 mg/kg/injection, schedule: Q04DX003 (ip), vehicle: saline 108 % of control | [11] 114 % of control | [12] 120 % of control

O=c1[nH]cc[nH]1
inactive: endpoint: mean survival time, dose: 267.0 mg/kg/injection, schedule: Q01DX009 (ip), vehicle: saline 111 % of control

Nc1cc(=O)c2cn[nH]c2[nH]1
inactive: endpoint: mean survival time, dose: 12.5 mg/kg/injection, schedule: Q01DX005 (ip), vehicle: other 98 % of control | endpoint: mean survival time, dose: 25.0 mg/kg/injection, schedule: Q01DX005 (ip), vehicle: other 102 % of control | endpoint: mean survival time, dose: 50.0 mg/kg/injection, schedule: Q01DX005 (ip), vehicle: other 102 % of control | endpoint: mean survival time, dose: 100.0 mg/kg/injection, schedule: Q01DX005 (ip), vehicle: other 95 % of control

O=C1[O][Sb]23[O]C(=O)C([O]2)C(O)C(O)C2[O][Sb]4([O]C(=O)C([O]4)C(O)C(O)C1[O]3)[O]C2=O (configuration not stated)
inactive: [4] 95 % of control | endpoint: mean survival time, dose: 50.0 mg/kg/injection, schedule: Q01DX001 (ip), vehicle: saline 97 % of control | [5] 95 % of control | [11] 87 % of control | [9] 101 % of control | endpoint: mean survival time, dose: 100.0 mg/kg/injection, schedule: Q01DX009 (ip), vehicle: saline 98 % of control | [12] 91 % of control | [10] 96 % of control

O=C(CC(O)(C(F)(F)F)C(F)(F)F)c1ccccc1Cl
inactive: [8] 100 % of control | [6] 115 % of control | [7] 107 % of control

CCOC(=O)/C=C(C)/C=C/C1C(C)=CCCC1(C)C (configuration not stated)
inactive: [1] 103 % of control | [2] 92 % of control | [3] 100 % of control

Cc1cnnc(N(C)N)c1
inactive: endpoint: mean survival time, dose: 12.5 mg/kg/injection, schedule: Q04DX002 (ip), vehicle: saline 107 % of control | endpoint: mean survival time, dose: 25.0 mg/kg/injection, schedule: Q04DX002 (ip), vehicle: saline 114 % of control | endpoint: mean survival time, dose: 50.0 mg/kg/injection, schedule: Q04DX002 (ip), vehicle: saline 96 % of control

COC(=O)c1n[nH]c(C(C)C)c1N=NN(C)C
inactive: endpoint: mean survival time, dose: 37.5 mg/kg/injection, schedule: Q01DX009 (ip), vehicle: saline with Tween-80 106 % of control | endpoint: mean survival time, dose: 75.0 mg/kg/injection, schedule: Q01DX009 (ip), vehicle: saline with Tween-80 121 % of control | endpoint: mean survival time, dose: 150.0 mg/kg/injection, schedule: Q01DX009 (ip), vehicle: saline with Tween-80 92 % of control
